PMC11823594, “Durlobactam in combination with β-lactams to combat Mycobacterium abscessus” (Antimicrobial Agents and Chemotherapy, 2024)

Experiments:
[1] = target: T1, LDT4 (Mycobacterium abscessus, UniProt B1MKW1); assay: Mass spectrometry of covalent adduct formation; format: binding; settings: protein:drug 1:20, 2 h; mass accuracy ±5 Da; (−) = no change
Description: Truncated sequences of LDT1-5, DDC, PBP B, and PBP-lipo (Δ1–41) were generated by Celtek Biosciences and cloned into the pET28(a) + vector with a tobacco etch virus (TEV) protease cleavage site before the start codon. Clones were transformed into Escherichia coli BL21 (DE3) and grown to an OD600 of 0.6–0.8. Protein expression was induced with 0.25 mM isopropyl β-d-1-thiogalactopyranoside (IPTG) and incubated for 18 h at 18°C. Cell pellets were collected and stored at −20°C overnight, then resuspended in a buffer containing 50 mM Tris (pH 8.0), 400 mM sodium chloride, and 1 mM Tris (2-carboxyethyl) phosphine hydrochloride (TCEP), followed by sonication and centrifugation. The supernatant was purified using a His Prep FF 16/10 column (GE Healthcare) and eluted with 500 mM imidazole. Eluted protein was dialyzed overnight at 4°C in a buffer with 50 mM Tris (pH 8.0), 150 mM sodium chloride, and 0.5 mM TCEP in the presence of His-tagged TEV protease. To remove the His tag, the mixture was passed over the His Prep FF 16/10 column again.
The purified proteins listed above were incubated at room temperature with β-lactams or BLIs at a molar ratio of 1:20 for 2 h. The reactions were then quenched with acetonitrile and diluted to 1 mL with 0.1% formic acid in water. Samples were analyzed using a quadrupole time-of-flight (Q-TOF) Waters Synapt-G2-Si electrospray ionization mass spectrometer (ESI-MS) and a Waters Acquity H class ultra-performance liquid chromatography (UPLC) system, equipped with a BEH C18 1.7 µm column (2.1 × 50 mm). The MS was tuned with the following settings: capillary voltage set at 3 kV, sampling cone at 35 V, source offset at 35, source temperature of 100°C, desolvation temperature of 500°C, cone gas flow rate at 100 L/h, desolvation gas flow rate at 800 L/h, and nebulizer set at 6.0. The mobile phases consisted of 0.1% formic acid in water and 0.1% formic acid in 100% acetonitrile, with gradient elution from 10% to 90% of […] over 11 min. The system’s mass accuracy was ±5 Da.

[2] = target: T1, LDT4; assay: Steady-state kinetics with nitrocefin (Ki,app); format: biochemical; settings: in parentheses in Table 3
Description: (§1) Steady-state kinetic studies were conducted using purified LDTs and PBPs (LDT1-5, PBP B, PBP-lipo, and DDC) as previously described ([20]). The assays were performed using a BioTek Synergy2 multimode reader in conjunction with Gen5 analysis software. Increasing concentrations of NCF (Δε482 = 17,400 M^⁻¹ cm^⁻¹) were used, while fixed concentrations of the LDTs and PBPs were monitored for changes in absorbance at 482 nm over a time period of 0 to 10 min. To determine reaction velocities, a 0.25 cm path length was employed. The steady-state kinetic parameters (Vmax, kcat, and Km) were obtained by fitting the data to the Henri-Michaelis-Menten equation using a nonlinear least-squares fit in Origin 8.1 software (OriginLab, Northampton, MA). The reaction rate (v) at a given substrate concentration ([S]) was calculated according to the following equations: […]
(§2) To determine the apparent inhibition constants (Ki,app) for β-lactams and BLIs, the following experimental condition was employed: NCF as a substrate at a concentration of 5 × Km, LDT/ PBP enzymes with fixed concentration, and β-lactams and BLIs with various concentrations. Changes in absorbance at 482 nm were measured over a period of 0–30 min for each concentration of β-lactams and BLIs. Data were linearized using a Dixon plot, plotting the inverse changes in absorbance (1/ΔA) against the concentrations of β-lactams and BLIs. The observed Ki,app was determined directly from the Dixon plot, and these values were corrected for substrate concentration and affinity for the LDT using the following equation:
(§3) Ki,app=observed Ki,app/1+[NCF]/Km NCF

[3] = target: LDT3 (Mycobacterium abscessus, UniProt B1MHQ4); assay: Steady-state kinetics with nitrocefin (Ki,app); format: biochemical; settings: in parentheses in Table 3
Description: as §1, §2, §3

[4] = target: LDT2 (Mycobacterium abscessus, UniProt B1MMQ4); assay: Steady-state kinetics with nitrocefin (Ki,app); format: biochemical; settings: for Ki: Ki,app LDT2, nitrocefin at 5 × Km; for Ratio of fCss,avg to Ki,app, LDT2: in parentheses in Table 3
Description: as §1, §2, §3

[5] = target: LDT5 (Mycobacterium abscessus, UniProt B1MM58); assay: Steady-state kinetics with nitrocefin (Ki,app); format: biochemical; settings: in parentheses in Table 3
Description: as §1, with “Increasing concentrations of NCF (Δε482 = 17,400 M^⁻¹ cm^⁻¹) were used, while fixed concentrations of the LDTs and PBPs were monitored for changes in absorbance at 482 nm over a time period of 0 to 10 min.” left out
Changes in absorbance at 482 nm were measured over a period of 0–30 min for each concentration of β-lactams and BLIs. Data were linearized using a Dixon plot, plotting the inverse changes in absorbance (1/ΔA) against the concentrations of β-lactams and BLIs. The observed Ki,app was determined directly from the Dixon plot, and these values were corrected for substrate concentration and affinity for the LDT using the following equation:
as §3

[6] = target: PBP B (Mycobacterium abscessus, UniProt B1MP31); assay: Differential scanning fluorimetry thermal shift assay; format: binding; settings: 2 h; read-out: ΔTm PBPB (Tm = 31.6°C)
Description: (§4) Each purified protein (2–4 µM) was incubated with or without β-lactams or BLIs at a molar ratio of 1:50 at room temperature for 2 h. Following incubation, SYPRO Orange dye (10× concentration; Fisher Scientific) was added. The samples were then brought to a final volume of 30 µL with PBS buffer and subjected to thermal cycling in a qPCR machine (Bio-Rad), with the temperature increasing from 25°C to 95°C at a rate of 1°C/min. Fluorescence changes were monitored with an excitation wavelength of 492 nm. The experiments were conducted at least in duplicate, and the melting temperature (Tm) was determined for each sample. The Tm values were then compared to those of the protein in the absence of β-lactams or BLIs to ascertain the change in melting temperature (ΔTm).

[7] = target: DDC (Mycobacteroides abscessus, UniProt B1MDJ1); assay: as above; format: binding; settings: 2 h; read-out: ΔTm DDC (Tm = 35.5°C)
Description: as §4

[8] = target: LDT1 (Mycobacterium abscessus, UniProt B1MDC1); assay: Steady-state kinetics with nitrocefin (Ki,app); format: biochemical; settings: for Ki: Ki,app LDT1, nitrocefin at 5 × Km; for Ratio of fCss,avg to Ki,app, LDT1: in parentheses in Table 3
Description: as §1, §2, §3

[9] = human, in vivo; cited from earlier work

Sequence of DDC (B1MDJ1 entry or part of it): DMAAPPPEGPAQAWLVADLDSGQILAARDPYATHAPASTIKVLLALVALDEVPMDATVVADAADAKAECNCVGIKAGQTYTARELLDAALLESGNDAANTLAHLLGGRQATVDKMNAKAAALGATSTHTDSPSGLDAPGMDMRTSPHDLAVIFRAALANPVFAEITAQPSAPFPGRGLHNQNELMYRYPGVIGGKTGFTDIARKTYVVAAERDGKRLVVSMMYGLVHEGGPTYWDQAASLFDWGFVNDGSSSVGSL
Sequence of LDT2 (B1MMQ4 entry or part of it): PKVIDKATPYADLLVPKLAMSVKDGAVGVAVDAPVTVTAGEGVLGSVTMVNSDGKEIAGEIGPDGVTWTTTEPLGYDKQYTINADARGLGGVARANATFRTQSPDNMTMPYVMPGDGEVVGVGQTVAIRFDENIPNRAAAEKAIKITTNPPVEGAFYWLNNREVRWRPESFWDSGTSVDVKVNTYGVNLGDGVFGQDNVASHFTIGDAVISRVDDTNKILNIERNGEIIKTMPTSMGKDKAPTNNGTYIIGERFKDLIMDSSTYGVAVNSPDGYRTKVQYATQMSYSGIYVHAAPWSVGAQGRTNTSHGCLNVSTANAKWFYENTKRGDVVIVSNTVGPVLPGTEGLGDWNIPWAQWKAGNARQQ
Sequence of PBP B (B1MP31 entry or part of it): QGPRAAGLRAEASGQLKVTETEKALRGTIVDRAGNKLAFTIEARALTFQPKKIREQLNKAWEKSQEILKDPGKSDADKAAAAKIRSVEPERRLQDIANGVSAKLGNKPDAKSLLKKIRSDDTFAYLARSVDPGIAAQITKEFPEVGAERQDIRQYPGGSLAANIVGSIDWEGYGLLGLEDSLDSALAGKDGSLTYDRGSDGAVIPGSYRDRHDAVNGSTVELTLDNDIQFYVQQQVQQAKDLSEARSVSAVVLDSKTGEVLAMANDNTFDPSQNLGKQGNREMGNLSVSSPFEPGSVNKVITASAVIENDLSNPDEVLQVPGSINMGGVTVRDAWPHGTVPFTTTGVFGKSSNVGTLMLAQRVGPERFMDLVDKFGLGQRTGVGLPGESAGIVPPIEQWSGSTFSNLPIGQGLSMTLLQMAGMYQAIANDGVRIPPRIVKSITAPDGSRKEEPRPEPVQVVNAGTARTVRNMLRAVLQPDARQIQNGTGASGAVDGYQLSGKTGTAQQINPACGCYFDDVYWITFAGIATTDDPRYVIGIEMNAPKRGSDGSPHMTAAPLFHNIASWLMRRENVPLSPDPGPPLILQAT
T1 sequence (B1MKW1 entry or part of it): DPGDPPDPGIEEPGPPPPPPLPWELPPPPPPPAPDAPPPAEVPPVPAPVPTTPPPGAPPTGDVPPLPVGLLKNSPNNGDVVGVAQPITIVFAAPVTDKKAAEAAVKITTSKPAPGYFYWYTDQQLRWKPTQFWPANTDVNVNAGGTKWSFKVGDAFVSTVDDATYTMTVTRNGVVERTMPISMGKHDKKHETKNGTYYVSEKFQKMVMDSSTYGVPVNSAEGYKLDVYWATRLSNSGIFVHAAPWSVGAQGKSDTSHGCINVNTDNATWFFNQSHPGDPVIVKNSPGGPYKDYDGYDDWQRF
Sequence of LDT1 (B1MDC1 entry or part of it): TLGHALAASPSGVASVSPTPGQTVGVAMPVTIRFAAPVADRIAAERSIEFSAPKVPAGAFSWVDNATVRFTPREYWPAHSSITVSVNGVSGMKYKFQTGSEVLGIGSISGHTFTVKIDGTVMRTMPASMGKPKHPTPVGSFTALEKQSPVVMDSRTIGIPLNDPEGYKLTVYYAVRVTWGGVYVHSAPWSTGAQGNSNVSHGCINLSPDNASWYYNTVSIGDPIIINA
Sequence of LDT5 (B1MM58 entry or part of it): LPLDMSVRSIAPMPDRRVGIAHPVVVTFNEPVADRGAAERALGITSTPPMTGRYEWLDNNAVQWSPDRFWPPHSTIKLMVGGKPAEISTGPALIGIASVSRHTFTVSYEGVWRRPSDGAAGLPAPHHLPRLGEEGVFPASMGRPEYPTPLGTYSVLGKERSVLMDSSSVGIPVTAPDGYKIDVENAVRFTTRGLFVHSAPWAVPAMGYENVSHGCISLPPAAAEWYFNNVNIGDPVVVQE
Sequence of LDT3 (B1MHQ4 entry or part of it): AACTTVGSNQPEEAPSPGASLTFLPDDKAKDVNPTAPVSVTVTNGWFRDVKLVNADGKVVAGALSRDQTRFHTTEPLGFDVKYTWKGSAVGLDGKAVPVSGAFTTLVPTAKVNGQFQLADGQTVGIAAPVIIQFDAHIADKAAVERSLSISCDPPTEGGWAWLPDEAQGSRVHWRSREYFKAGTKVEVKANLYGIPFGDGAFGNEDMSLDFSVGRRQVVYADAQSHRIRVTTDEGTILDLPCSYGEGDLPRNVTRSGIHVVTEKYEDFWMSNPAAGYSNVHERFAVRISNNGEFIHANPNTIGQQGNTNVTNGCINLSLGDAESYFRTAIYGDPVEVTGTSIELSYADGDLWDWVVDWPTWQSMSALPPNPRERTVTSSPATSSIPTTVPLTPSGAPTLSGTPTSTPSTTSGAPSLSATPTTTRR

Row | SMILES | Observed MW (+ change in mw), LDT4 (32,567) [1] | Ratio of fCss,avg to Ki,app, LDT4 [2] | Ratio of fCss,avg to Ki,app, LDT3 [3] | Ki [4] [nM] | Ratio of fCss,avg to Ki,app, LDT2 [4] | Ratio of fCss,avg to Ki,app, LDT5 [5] | ΔTm [6] [°C] | ΔTm [7] [°C] | Ki [8] [nM] | Ratio of fCss,avg to Ki,app, LDT1 [8] | Total clearance after IV dosing [9] [L/h]
1 | C[C@@H](O)[C@H]1C(=O)N2C(C(=O)O)=C(S[C@H]3CC[S@@+]([O-])C3)S[C@H]12 [Sulopenem, sulopenem] | 32,652 (+86) Da | 1.1 | 0.4 | 200 | 29 | 1.5 | 1 | 10.4 |  |  | 
2 | C[C@@H](O)[C@H]1C(=O)N2C(C(=O)O)=C(SCCN=CN)C[C@H]12 [Imipenem, imipenem] |  | 3 |  | 6.68 | 6667 | 0.4 |  |  | 6.68 | 5714 | 
3 | CC1=C[C@@H]2CN(C(=O)N2OS(=O)(=O)O)[C@@H]1C(N)=O [Durlobactam, durlobactam] | 32,841 (+276) Da | 6 |  |  |  | 145 | -0.4 | 0.4 | 418000 | 0.1 | 
4 | CO/N=C(\C(=O)N[C@@H]1C(=O)N2C(C(=O)O)=C(COC(N)=O)CS[C@H]12)c1ccco1 [Cefuroxime, cefuroxime] | 32,567 (−) Da |  |  | 1180 | 24 | 7.5 |  |  |  |  | 9.0 to 16
5 | NC(=O)[C@@H]1CC[C@@H]2CN1C(=O)N2OS(=O)(=O)O [Avibactam, avibactam] |  | < 0.02 |  | 1700 | 11 |  | -0.2 | 4.2 | 26400 | 0.7 | 
6 | C[C@@H](O)[C@H]1C(=O)N2C(C(=O)O)=C(SC3CN(C4=NCCS4)C3)[C@H](C)[C@H]12 [Tebipenem, tebipenem] | 32,951 (+384) Da | 2.4 |  | 26.1 | 170 |  |  |  | 4950 | 0.9 | 
